Laboratory results published in patent publication US20240091230A1, “USE OF KRAS G12C INHIBITOR IN TREATING CANCERS” (AMGEN INC., priority 2021, published 2024).

Tested on: locally advanced or metastatic KRAS G12C mutant NSCLC
Test: CodeBreaK 100 phase 2 portion, sotorasib monotherapy 960 mg QD (NCT03600883)
Type: in vivo, human
Conditions: among 46 confirmed responders; cutoff Sep. 1, 2020
Description: As discussed above, in phase 2 of the CodeBreaK 100 Trial (ClinicalTrials.gov identifier: NCT03600883) subjects with locally advanced or metastatic KRAS G12C mutant NSCLC were treated with the compound of Formula I as monotherapy at 960 mg QD.
• Subject has provided informed consent prior to initiation of any study specific activities/procedures. • Men or women: 18 years of age or older. • Pathologically documented, locally-advanced or metastatic malignancy with KRAS G1 2C 10 mutation identified through molecular testing. For phase 2. the mutation was confirmed by central testing prior to enrollment. • Subjects must have progressed after receiving anti-PD-1 or anti-PD-L1 immunotherapy (unless contraindicated) AND/OR platinum-based combination chemotherapy AND targeted therapy if actionable oncogenic driver mutations were identified (i.e., EGFR, ALK, and ROS1). Subjects must have received no more than 3 prior lines of therapy. The following guidance was used: • Adjuvant therapy was counted as a line of therapy if the subject progressed on or within 6 months of adjuvant therapy administration. • In locally advanced and unresectable NSCLC, disease progression on or within six months of end of prior curatively intended multimodal therapy was counted as a line of therapy.
• Active brain metastases from non-brain tumors.
Samples for biomarker analysis, e.g., to evaluate potential biomarkers that may correlate with treatment response, were collected.
For subjects with NSCLC an archival tumor sample (formalin fixed, paraffin embedded (FFPE) sample, collected within 5 years of enrollment) or pretreatment tumor biopsy (core needle or fine needle aspirates or excisional FFPE sample) was submitted prior to enrollment for central laboratory testing as well as subsequent exploratory biomarker analyses. […]
KRAS G12C mutation testing was conducted using a therascreen® KRAS RGQ PCR Kit (Qiagen). […] The mutations detected are: G12A, G12D, G12R, G12C, G12S, G12V, and G13D.
PD-L1 testing was conducted at the central labs using the Dako PharmDx 22C3 immunohistochemistry FDA-approved kit according to the instructions for use. […] All slides were reviewed and scored by a board-certified pathologist trained to score the PD-L1 IHC 22C3 pharrnDx assay.
STK11, KEAP1 , and TP53 mutation testing was conducted using the Resolution Bioscience Resolution ctDx Lung™ assay that included 24 genes (including those actionable in NSCLC). […] STK11/KEAP1/TP53 co-mutation analysis determined mutational status from baseline tissue and/or plasma samples, and mutations include nonsense, missense, frameshift, or splice site mutations and insertion/deletions predicted to be loss-of-function, and excluded variants of unknown significance. […]

Q: With `C=CC(=O)N1CCN(c2nc(=O)n(-c3c(C)ccnc3C(C)C)c3nc(-c4c(O)cccc4F)c(F)cc23)[C@@H](C)C1` [sotorasib, 6-fluoro-7-(2-fluoro-6-hydroxyphenyl)-(1M)-1-[4-methyl-2-(propan-2-yl)pyridin-3--yl]-4-[(2S)-2-methyl-4-(prop-2-enoyl)piperazin-1-yl]pyrido[2,3-d]pyrimidin-2(1H)-one] as the compound, how does the “Duration of response (KM) - 25th percentile” value read?
A: Its value is 6.8 months.

Q: And the “Duration of response (KM) - 75th percentile” value?
A: The value was 8.4 months.

Q: What about the “Duration of response (KM) - Max (+ for censored)” value of the same compound?
A: Its value is 8.4 months.

Q: And the “Duration of response (KM) - Median” value?
A: The value was 8.4 months.
